This note sets out measurements from patent US8686184B2, “Neprilysin inhibitors” (Theravance, Inc., priority 2011, dated 2014).

This assay has as its target T1, human neprilysin (EC 3.4.24.11; NEP) (Homo sapiens, UniProt P08473).
T1 construct: purchased R&D Systems, Minneapolis, Minn; 1182-ZN
The assay can be described thus: In vitro enzyme inhibition assay at human NEP (fluorogenic peptide substrate). The class given is biochemical. The conditions noted are these: recombinant human NEP; 37° C.; substrate Mca-D-Arg-Arg-Leu-Dap-(Dnp)-OH 10 μM; values given as ranges; read-out: pKi values at human NEP (converted). As for the experimental part:
In vitro Assays for the Quantitation of Inhibitor Potencies at Human and Rat NEP, and Human ACE
The inhibitory activities of compounds at human and rat neprilysin (EC 3.4.24.11; NEP) and human angiotensin converting enzyme (ACE) were determined using in vitro assays as described below.
Recombinant human NEP and recombinant human ACE were obtained commercially (R&D Systems, Minneapolis, Minn., catalog numbers 1182-ZN and 929-ZN, respectively). The fluorogenic peptide substrate Mca-D-Arg-Arg-Leu-Dap-(Dnp)-OH (Medeiros et al. (1997) Braz. J. Med. Biol. Res. 30:1157-62; Anaspec, San Jose, Calif.) and Abz-Phe-Arg-Lys(Dnp)-Pro-OH (Araujo et al. (2000) Biochemistry 39:8519-8525; Bachem, Torrance, Calif.) were used in the NEP and ACE assays respectively.
The assays were performed in 384-well white opaque plates at 37° C. using the fluorogenic peptide substrates at a concentration of 10 μM in Assay Buffer (NEP: 50 mM HEPES, pH 7.5, 100 mM NaCl, 0.01% polyethylene glycol sorbitan monolaurate (Tween-20), 10 μM ZnSO4; ACE: 50 mM HEPES, pH 7.5, 100 mM NaCl, 0.01% Tween-20, 1 μM ZnSO4).
Test compounds were assayed over the range of concentrations from 10 μM to 20 pM. Test compounds were added to the enzymes and incubated for 30 minute at 37° C. prior to initiating the reaction by the addition of substrate. Reactions were terminated after 20 minutes of incubation at 37° C. by the addition of glacial acetic acid to a final concentration of 3.6% (v/v).
Plates were read on a fluorometer with excitation and emission wavelengths set to 320 nm and 405 nm, respectively Inhibition constants were obtained by nonlinear regression of the data using the equation (GraphPad Software, Inc., San Diego, Calif.): v=v0/[1+(I/K′)] where v is the reaction rate, v0 is the uninhibited reaction rate, I is the inhibitor concentration and K′ is the apparent inhibition constant.
Compounds of the invention were tested in this assay and found to have pKi values at human NEP as follows.

T1 sequence (P08473 52-750 limits assumed): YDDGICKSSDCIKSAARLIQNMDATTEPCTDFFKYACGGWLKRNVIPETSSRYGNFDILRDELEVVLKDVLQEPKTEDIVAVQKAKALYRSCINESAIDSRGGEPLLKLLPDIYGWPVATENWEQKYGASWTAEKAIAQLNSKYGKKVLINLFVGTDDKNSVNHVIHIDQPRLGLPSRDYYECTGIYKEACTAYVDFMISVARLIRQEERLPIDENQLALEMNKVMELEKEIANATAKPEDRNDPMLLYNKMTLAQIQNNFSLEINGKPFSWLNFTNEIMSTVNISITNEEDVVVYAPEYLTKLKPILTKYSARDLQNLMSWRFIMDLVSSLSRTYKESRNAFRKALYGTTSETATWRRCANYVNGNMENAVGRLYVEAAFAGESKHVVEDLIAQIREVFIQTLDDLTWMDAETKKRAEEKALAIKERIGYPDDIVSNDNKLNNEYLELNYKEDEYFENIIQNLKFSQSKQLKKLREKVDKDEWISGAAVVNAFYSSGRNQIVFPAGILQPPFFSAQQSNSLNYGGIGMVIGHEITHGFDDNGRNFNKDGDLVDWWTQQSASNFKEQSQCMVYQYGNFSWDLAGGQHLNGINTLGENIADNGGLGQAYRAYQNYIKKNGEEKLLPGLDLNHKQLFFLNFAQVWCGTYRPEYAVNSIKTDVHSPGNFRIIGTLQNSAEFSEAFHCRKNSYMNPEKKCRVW

On to `O=C(CCCc1cc(F)ccc1C(=O)O)N[C@H](Cc1ccccc1Cl)[C@@H](O)C(=O)O` [Example 2-1, 2-{3-[(1R,2R)-2-Carboxy-1-(2-chlorobenzyl)-2-hydroxy-ethylcarbamoyl]-propyl}-4-fluoro-benzoic acid], for which the Ki was no more than 0.001 µM.
To `O=C(N[C@H](Cc1ccccc1Cl)[C@@H](O)C(=O)O)c1cc(F)c(F)c(-c2ccccc2C(=O)O)c1` [Example 3, 5′-[(1R,2R)-2-Carboxy-1-(2-chlorobenzyl)-2-hydroxy-ethylcarbamoyl]-2′,3′-difluoro-biphenyl-2-carb oxylic Acid] belongs no more than 0.001 µM; to `CCc1ccc(C(=O)N[C@H](Cc2ccccc2Cl)[C@@H](O)C(=O)O)cc1-n1c(=O)[nH]c2sc(C)cc2c1=O` [Example 4, (2R,3R)-4-(2-Chlorophenyl)-3-[4-ethyl-3-(6-methyl-2,4-dioxo-1,4-dihydro-2H-thieno[2,3-d]pyrimidin-3-yl)-benzoylamino]-2-hydroxy-butyric Acid], no more than 0.001 µM; to `O=C(N[C@H](Cc1ccccc1Cl)[C@@H](O)C(=O)O)c1cc(F)cc(-c2ccccc2C(=O)O)c1` [Example 6-1, 5′-[(1R,2R)-2-Carboxy-1-(2-chlorobenzyl)-2-hydroxy-ethylcarbamoyl]-3′-fluoro-biphenyl-2-carboxylic acid], 0.00126 to 0.01 µM.
For `O=C(N[C@H](Cc1ccccc1Cl)[C@@H](O)C(=O)O)c1cc(Cl)cc(-c2ccccc2C(=O)O)c1` [Example 6-2, 5′-[(1R,2R)-2-Carboxy-1-(2-chlorobenzyl)-2-hydroxy-ethylcarbamoyl]-3′-chloro-biphenyl-2-carboxylic acid] the value was no more than 0.001 µM.
To `O=C(N[C@H](Cc1ccccc1Cl)[C@@H](O)C(=O)O)c1ccc(Cl)c(-c2ccccc2C(=O)O)c1` [Example 6-3, 5′-[(1R,2R)-2-Carboxy-1-(2-chlorobenzyl)-2-hydroxy-ethylcarbamoyl]-2′-chloro-biphenyl-2-carboxylic acid] belongs no more than 0.001 µM; to `O=C(N[C@H](Cc1ccccc1Cl)[C@@H](O)C(=O)O)c1cc(Cl)c(F)c(-c2ccccc2C(=O)O)c1` [Example 6-4, 5′-[(1R,2R)-2-Carboxy-1-(2-chlorobenzyl)-2-hydroxy-ethylcarbamoyl]-3′-chloro-2′-fluoro-biphenyl-2-carboxylic acid], 0.00126 to 0.01 µM; to `Cc1ccc(C(=O)N[C@H](Cc2ccccc2Cl)[C@H](O)C(=O)O)cc1-c1ccccc1C(=O)O` [Example 6-5, 5′-[(1R,2S)-2-Carboxy-1-(2-chlorobenzyl)-2-hydroxy-ethylcarbamoyl]-2′-methyl-biphenyl-2-carboxylic acid], 0.0126 to 0.1 µM.
With `Cc1ccc(C(=O)N[C@H](Cc2ccccc2Cl)[C@@H](O)C(=O)O)cc1-c1ccccc1C(=O)O` [Example 6-6, 5′-[(1R,2R)-2-Carboxy-1-(2-chlorobenzyl)-2-hydroxy-ethylcarbamoyl]-2′-methyl-biphenyl-2-carboxylic acid], the Ki was no more than 0.001 µM.
For `COc1ccc(C(=O)N[C@H](Cc2ccccc2Cl)[C@@H](O)C(=O)O)cc1-c1ccccc1C(=O)O` [Example 6-7, 5′-[(1R,2R)-2-Carboxy-1-(2-chlorobenzyl)-2-hydroxy-ethylcarbamoyl]-2′-methoxy-biphenyl-2-carboxylic acid] the value was 0.0126 to 0.1 µM.
To `Cc1cc(C(=O)N[C@H](Cc2ccccc2Cl)[C@@H](O)C(=O)O)ccc1-c1ccccc1C(=O)O` [Example 6-8, 4′-[(1R,2R)-2-Carboxy-1-(2-chlorobenzyl)-2-hydroxy-ethylcarbamoyl]-2′-methyl-biphenyl-2-carboxylic acid] belongs 0.00126 to 0.01 µM.
Regarding `O=C(N[C@H](Cc1ccccc1Cl)[C@@H](O)C(=O)O)c1ccc(-c2ccccc2C(=O)O)c(F)c1` [Example 6-9, 4′-[(1R,2R)-2-Carboxy-1-(2-chlorobenzyl)-2-hydroxy-ethylcarbamoyl]-2′-fluoro-biphenyl-2-carboxylic acid], the Ki is 0.00126 to 0.01 µM.
For `O=C(N[C@H](Cc1ccccc1Cl)[C@@H](O)C(=O)O)c1ccc(N2N=C(C(F)(F)F)CC2=O)cc1` [Example 6-14, (2R,3R)-4-(2-Chlorophenyl)-2-hydroxy-3-[4-(5-oxo-3-trifluoromethyl-4,5-dihydro-pyrazol-1-yl)-benzoylamino]-butyric acid] the value was 0.0126 to 0.1 µM.
As to `CC1=NN(c2ccc(C(=O)N[C@H](Cc3ccccc3Cl)[C@H](O)C(=O)O)cc2)C(=O)C1` [Example 6-15, (2S,3R)-4-(2-Chlorophenyl)-2-hydroxy-3-[4-(3-methyl-5-oxo-4,5-dihydro-pyrazol-1-yl)-benzoylamino]-butyric acid], the Ki is 0.00126 to 0.01 µM.
With `CCc1ccc(C(=O)N[C@H](Cc2ccccc2Cl)[C@@H](O)C(=O)O)cc1N1N=C(C)CC1=O` [Example 6-17, (2R,3R)-4-(2-Chlorophenyl)-3-[4-ethyl-3-(3-methyl-5-oxo-4,5-dihydro-pyrazol-1-yl)-benzoylamino]-2-hydroxy-butyric acid], the Ki was 0.00126 to 0.01 µM.
To `CC1=NN(Cc2ccc(C(=O)N[C@H](Cc3ccccc3Cl)[C@@H](O)C(=O)O)cc2)C(=O)C1` [Example 6-19, (2R,3R)-4-(2-Chlorophenyl)-2-hydroxy-3-[4-(3-methyl-5-oxo-4,5-dihydro-pyrazol-1-ylmethyl)-benzoylamino]-butyric acid] belongs 0.0126 to 0.1 µM; to `Cc1nn(-c2ccc(C(=O)N[C@H](Cc3ccccc3)[C@@H](O)C(=O)O)cc2)c(C)c1Cl` [Example 10-1, (2R,3R)-3-[4-(4-Chloro-3,5-dimethyl-pyrazol-1-yl)-benzoylamino]-2-hydroxy-4-phenyl-butyric acid], 0.0126 to 0.1 µM; to `O=C(N[C@H](Cc1ccccc1)[C@@H](O)C(=O)O)c1ccc(-n2cccn2)cc1` [Example 10-2, (2R,3R)-2-Hydroxy-4-phenyl-3-(4-pyrazol-1-yl-benzoylamino)-butyric acid], 0.0126 to 0.1 µM.
For `O=C(N[C@H](Cc1ccccc1)[C@@H](O)C(=O)O)c1ccc(-n2ccc(C(F)(F)F)n2)cc1` [Example 10-3, (2R,3R)-2-Hydroxy-4-phenyl-3-[4-(3-trifluoromethyl-pyrazol-1-yl)-benzoylamino]-butyric acid] the value was 0.0126 to 0.1 µM.
For `Cc1cc(C)n(-c2ccc(C(=O)N[C@H](Cc3ccccc3)[C@@H](O)C(=O)O)cc2)n1` [Example 10-4, (2R,3R)-3-[4-(3,5-Dimethyl-pyrazol-1-yl)-benzoylamino]-2-hydroxy-4-phenyl-butyric acid] the value was 0.0126 to 0.1 µM; for `Cc1cc(C)n(-c2cccc(C(=O)N[C@H](Cc3ccccc3)[C@@H](O)C(=O)O)c2)n1` [Example 10-5, (2R,3R)-3-[3-(3,5-Dimethyl-pyrazol-1-yl)-benzoylamino]-2-hydroxy-4-phenyl-butyric acid], 0.0126 to 0.1 µM.
On to `Cc1cc(C)n(-c2cc(C(=O)N[C@H](Cc3ccccc3)[C@@H](O)C(=O)O)ccc2F)n1` [Example 10-6, (2R,3R)-3-[3-(3,5-Dimethylpyrazol-1-yl)-4-fluorobenzoylamino]-2-hydroxy-4-phenyl-butyric acid], for which the Ki is 0.0126 to 0.1 µM.
For `Cc1cc(C)n(-c2cc(C(=O)N[C@H](Cc3ccccc3)[C@@H](O)C(=O)O)ccc2C)n1` [Example 10-7, (2R,3R)-3-[3-(3,5-Dimethylpyrazol-1-yl)-4-methylbenzoylamino]-2-hydroxy-4-phenyl-butyric acid] the value was 0.0126 to 0.1 µM; for `Cc1ccc(C(=O)N[C@H](Cc2ccccc2)[C@@H](O)C(=O)O)cc1-n1ccc(C(=O)O)n1` [Example 10-8, 1-[5-((1R,2R)-1-Benzyl-2-carboxy-2-hydroxyethylcarbamoyl)-2-methyl-phenyl]-1H-pyrazole-3-carboxylic acid], 0.0126 to 0.1 µM.
To `O=C(N[C@H](Cc1ccccc1)[C@@H](O)C(=O)O)c1cccc(-c2ccccc2C(=O)O)c1` [Example 10-9, 3′-((1R,2R)-1-Benzyl-2-carboxy-2-hydroxy-ethylcarbamoyl)-biphenyl-2-carboxylic acid] belongs 0.0126 to 0.1 µM.
As for `O=C(N[C@H](Cc1ccccc1)[C@@H](O)C(=O)O)c1cccc(-c2ccc(F)cc2C(=O)O)c1` [Example 10-10, 3′-((1R,2R)-1-Benzyl-2-carboxy-2-hydroxy-ethylcarbamoyl)-4-fluoro-biphenyl-2-carboxylic acid], the Ki is 0.0126 to 0.1 µM.
For `O=C(N[C@H](Cc1ccccc1)[C@@H](O)C(=O)O)c1cccc(-c2ccc(Cl)cc2C(=O)O)c1` [Example 10-11, 3′-((1R,2R)-1-Benzyl-2-carboxy-2-hydroxy-ethylcarbamoyl)-4-chloro-biphenyl-2-carboxylic acid] the value was 0.0126 to 0.1 µM.
